Data on 41 molecules can be found in PubChem BioAssay AID1996.

Each structure is given as a SMILES string. Converted amounts (≈) assume the structure as drawn. A value given as a limit tells only on which side of the number the result lay.

The conditions of this data set: buffer; pH 7.4; 200.0 µM.
On to `CC(=O)Nc1nc(-c2ccc3c(c2)CC(C)N3C(=O)C2CC2)c(C)s1` (stereo unspecified), for which the kinetic solubility (in general, solubility judged after dilution from a stock solution rather than from solid) worked out at 35 µg/mL (≈ 98.5 µM).
As for `COc1cc2c(cc1OC)C(c1ccccc1C)CC(=O)N2` (stereo unspecified), the figure is less than 0.6 µg/mL; as for `COc1ccc(C(=O)c2ccc(-c3ccc(OC)cc3)nc2)cc1`, less than 0.7 µg/mL.
Then `CC(=O)Nc1ccc(NC(=O)C2(C)CC2(Cl)Cl)cc1` (stereo unspecified), with greater than 45.2 µg/mL; and `CC1(C)Cc2cccc(C(=O)Nc3ccc(Cl)cc3)c2O1`, with 2.4 µg/mL (≈ 7.95 µM); and `CCOC(=O)/C(C#N)=C/C=C1/C=CC=CN1C`, with greater than 34.5 µg/mL.
Then `CC(Cl)C(=O)N1c2ccccc2CCc2ccccc21` (stereo unspecified), with 41.8 µg/mL (≈ 146 µM); and `CCN(CC)CC(=O)c1c(N)n(Cc2ccccc2)c(=O)n(C)c1=O`, with 51.4 µg/mL (≈ 149 µM).
For `Cc1cccc(C)c1NC(=O)COC(=O)C1C2CC3OC(=O)C1C3C2` (stereo unspecified), the solubility (kinetic) was greater than 51.5 µg/mL.
For `COC(=O)c1ccccc1NC(=O)CN1CCCCCC1`, the solubility (kinetic) is 31.6 µg/mL (≈ 109 µM).
As for `CC(C)Cc1nc2sc3c(SCC(N)=O)ncnc3c2c2c1CCC2`, the figure is 0.3 µg/mL (≈ 0.805 µM).
`COc1ccc(C(CCNCc2ccc(OC)c(OC)c2)c2ccc(F)cc2)cc1` (stereo unspecified): the solubility (kinetic) was greater than 61.4 µg/mL.
Consider `COC1=C(N2CCOCC2)C(=O)c2ccccc2C1=O`, for which the solubility (kinetic) was greater than 41 µg/mL.
Then `CCCC(=O)OCC(=O)NC1CCCc2ccccc21` (stereo unspecified), with greater than 41.3 µg/mL.
`O=C(NC1CC1)c1cc2cc3ccccc3nc2s1` yielded a solubility (kinetic) of 0.9 µg/mL (≈ 3.35 µM).
As for `Cc1cc(N2CCOCC2)nc(C(C)C)n1`, the figure is 32.4 µg/mL (≈ 146 µM); as for `CCCC(C)C(=O)Nc1ccc(S(=O)(=O)N2CCCC2)cc1` (stereo unspecified), greater than 48.7 µg/mL; as for `N#Cc1c(-c2ccccc2)nc2n1CCS2`, 7.3 µg/mL (≈ 32.1 µM).
Take `Cc1ccc(C)n1-c1cccc(C(=O)Nc2ccccc2)c1`: the kinetic solubility worked out at 13.9 µg/mL (≈ 47.9 µM).
Molecule `COc1ccc2nc(C)cc(NCc3ccc(F)cc3)c2c1` showed a solubility (kinetic) greater than 44.5 µg/mL.
As for `Cc1ccc(NC(=S)NC2CCSc3ccccc32)cc1C` (stereo unspecified), the figure is less than 0.4 µg/mL.
The molecule `CC(C)(C)C(=O)Oc1cccc(Nc2ncnc3ccccc23)c1` gave a kinetic solubility of 34.1 µg/mL (≈ 106 µM).
As for `COc1cc(/C=C/C(=O)OCC(=O)NC(C)c2ccccc2)cc(OC)c1OC` (stereo unspecified), the figure is 54.9 µg/mL (≈ 137 µM).
As for `Cc1c(NS(=O)(=O)c2cccs2)cccc1-c1nc2cccnc2s1`, the figure is 2.4 µg/mL (≈ 6.19 µM); as for `CS(=O)(=O)N(CC(=O)Nc1ccc(F)cc1F)C1CCCCC1`, greater than 52 µg/mL; as for `Fc1ccc(-c2cnc3n2CCCCC3)cc1`, greater than 34.5 µg/mL.
Then `CC1CCN(C(=O)c2cc3c(ccc4ccccc43)o2)CC1`, with less than 0.6 µg/mL.
Molecule `COc1ccccc1CNC(=O)c1cc(C)nc2ccccc12` displayed a solubility (kinetic) of 41.8 µg/mL (≈ 136 µM).
As for `COC(=O)c1ccc(COc2ccccc2/C=N/O)o1`, the figure is greater than 41.3 µg/mL; as for `Cc1ccc(NC(=O)C2CC(Cl)=CCC2C(=O)O)c([N+](=O)[O-])c1` (stereo unspecified), greater than 50.8 µg/mL; as for `COC(=O)c1sccc1NC(=O)Nc1cccc([N+](=O)[O-])c1`, 5.7 µg/mL (≈ 17.7 µM).
`CCN1CCN(CC(=O)N2c3ccccc3Sc3ccccc32)CC1` returned a kinetic solubility greater than 53 µg/mL.
Then `Cc1cccc2cc(C#N)c(N3CCOCC3)nc12`, with 1.7 µg/mL (≈ 6.71 µM).
`CC(C)(C)c1ccc(N2C(=O)CC(c3ccccc3)C2=O)cc1` (stereo unspecified) had a kinetic solubility of less than 0.7 µg/mL.
As for `O=C(O)c1cc(-c2ccc3ccccc3c2)nc2ccc(F)cc12`, the kinetic solubility was greater than 47.6 µg/mL.
As for `Cc1ccc(Sc2cnccc2C#N)cc1`, the figure is 15.4 µg/mL (≈ 68.1 µM); as for `O=C(CN1C(=O)C2(OCCO2)c2cc(Br)ccc21)NO`, 46.7 µg/mL (≈ 136 µM); as for `CN=C(c1ccco1)n1c(=S)nc(-c2ccco2)n(C)c1=S`, 39.6 µg/mL (≈ 119 µM).
In turn, `O=C(C[n+]1ccccc1)Nc1ccc(Oc2ccccc2)cc1.[Cl-]` returned a kinetic solubility greater than 51.1 µg/mL.
In the case of `O=C(/C=C/c1ccc(Cl)c(Cl)c1)Nc1cccnc1`, the solubility (kinetic) stood at 0.6 µg/mL (≈ 2.05 µM).
Then `CSc1ccccc1NC(=O)COC(=O)/C=C/c1ccco1`, with 16.9 µg/mL (≈ 53.3 µM).
